What is called IC50 is the concentration that inhibits the measured activity by half.

Counter-ions that a name gives are not always drawn.

Experiment [1] has as its target calcium channels. The experiment can be described thus: displacement of tritium-labeled nitrendipine from membrane preparations containing isolated calcium channels. The experiment is classed as binding. Here is the method: Their action on the calcium channels can be shown using the biochemical test model of the displacement of tritium-labeled nitrendipine. In this test, membrane preparations which contain isolated calcium channels are loaded with the labeled substance. After incubation with the test substance, the radioactivity released and the radioactivity remaining on the membrane are determined. The IC50 values shown by the compounds of the formula I, according to the invention, in this model are from 10^-6 molar to 10^-10 molar.

For experiment [2], the system named is isolated rabbit aorta. The experiment can be described thus: isolated rabbit aorta: contraction of aorta rings depolarized with potassium chloride after pretreatment with the test substance. The conditions noted are these: Oryctolagus cuniculus, concentration of 10^-6 M, KCl-depolarized aorta rings. The source says: Their calcium antagonistic or calcium agonistic action can be shown using the model of the isolated rabbit aorta. This entails aorta rings being depolarized with potassium chloride, whereupon they contract. Pretreatment with the test substance is followed by a diminution in contraction in the case of the compounds acting as calcium antagonists, but by an intensification of contraction in the case of compounds acting as calcium agonists. For example, the compound from Example 2 at a concentration of 10^-6 M results in a 32% diminution in contraction. The compound from Example 3 at a concentration of 10^-6 M results in a 93% intensification of contraction.

On to `COc1cc(CCN2CCN(CC#CCOc3ccccc3[C@@]3(C(C)C)Sc4ccccc4N(C)C3=O)CC2)cc(OC)c1OC` [Example 2, (R)-2-Isopropyl-4-methyl-2-[2-[4-[4-(3,4,5-trimethoxyphenethyl)-1-piperazinyl]-2-butyn-1 yloxy]phenyl]-2H-1,4-benzothiazin-3(4H)-one dihydrochloride], for which, in experiment [1], the IC50 was found to be 0.12 nM. Also, the inhibition at 1 µM in experiment [2] (calcium antagonistic action, read-out: diminution in contraction) came out at 32%. Regarding `COc1cc(CCN2CCN(C/C=C\COc3ccccc3[C@@]3(C(C)C)Sc4ccccc4N(C)C3=O)CC2)cc(OC)c1OC` [Example 3, (R)-2-isopropyl-4-methyl-2-[2-[4-[4-(3,4,5-trimethoxyphenethyl)-1-piperazinyl]-2-cis-buten-1-yloxy]phenyl]-2H-1,4-benzothiazin-3(4H)-one dihydrochloride], the activation at 1 µM in experiment [2] (calcium agonistic action, read-out: intensification of contraction) was determined as 93%.

The record behind these values is US5025010A, “Benzothiazinone derivatives, and pharmaceuticals containing them” (Hoechst Aktiengesellschaft, priority 1987, dated 1991).
